Results on 1 sequence are retold here after patent US12528840B2, “Transcription active complex targeting cancer drug from viral protein sequence” (The Regents of the University of California, priority 2020, dated 2026).

The test system of one experiment is human CD3 T cells. In words: CD3 T cell proliferation after anti-CD3/28 stimulation, flow cytometry. The experiment is classed as cell-based. To be noted: 32 μM, 24 hours after 16 hours anti-CD3/28. As to the method: To evaluate the effect of the peptide on human CD3 T cells, CD3 T cells were enriched by magnetic beads (CD3 positive selection beads, Stemcell technology) from PBMC samples from 5 healthy donors and stimulated with anti-CD3/28 tetramer (Stemcell technology) in triplicates for 16 hours before treating with PBS, MBK50 (32 μM) and Mutant peptide (32 μM) for 24 hours. Activated proliferating IRF4^+Ki67^+ CD3 T cells (red square in FIG. 5) in the culture were analyzed by live/dead-red staining (Invitrogen) and intracellular staining with anti-Ki67-FITC (Biolegend) and anti-IRF4-APC (Biolegend) antibodies. A representative flow cytometry profiles are shown in FIG. 5(a) for gating live CD3 T cell population and FIG. 5(b) Ki67 vs IRF4 for the gated live CD3 T cells. For FIG. 5(c-e), the means of triplicate cultures in each experiment for live cells % (c, n=5), total CD3 T cell numbers (d, n=5), and % of Ki67^+ cells (e, n=3) are shown in the top panel. The bottom panel are normalized data to PBS control cultures. P values calculated with Prism using one-way ANOVA with paired comparison. p<0.05 statistically significant.

In a further experiment the test system is MYC. In words: Intracellular staining of MYC in LPS-activated THP-1 cells. The following applies: THP-1, LPS 100 ng/ml, 16 μM, 24 hours. The experiment is classed as cell-based. The text has this:
FIG. 16. Effect of MBK50 on MYC and IRF4 expression in LPS-activated monocytic leukemia cell line THP-1 cells. […] MYC and IRF4 expression levels were examined by intracellular staining of MYC and IRF4 with isotype control staining followed by flow cytometry. FIG. 16(a) A scheme of the experimental procedure. FIG. 16(b) A representative histogram overlay for the MYC expression in THP-1 cells treated with MBK50, mutant control peptide or PBS, with isotype control. The average mean fluorescent intensity (MFI) for MYC expression (n=3) for each treatment is shown in the right panel. FIG. 16(c) A representative histogram overlay for the IRF4 expression (red) in THP-1 cells treated with MBK50, mutant control peptide, or PBS, with isotype control (blue). The average MFI for IRF4 expression for each treatment is shown in the right panel.
MYC is important for monocytic cell proliferation, especially upon LPS stimulation. […] MYC and IRF4 expression levels were examined by intracellular staining of MYC and IRF4 with isotype control staining followed by flow cytometry (FIG. 16a). […] Also, the percentage of THP-1 cells with reduced IRF4 expression was increased by MBK50 treatment compared to mutant control peptide or PBS treatment.

A further experiment concerns CD19+ B cells. In words: CD19+ B cell response to sCD40L, live/dead staining. The experiment is classed as cell-based. To be noted: 32 μM, sCD40L 1 μg/ml, 2 days. As to the method: CD19^+ B cells were isolated with magnetic beads from PBMC of a healthy donor (n=1). Cells were washed and cultured at 1×10^6/ml in a 96 well plate (200 μl/well in triplicates) without or with sCD40L (1 μg/ml) in the presence of MBK50 (16 or 32 μM) or mutant peptide (32 μM) for 2 days. Live cells were determined as shown in FIG. 3 left panel using live/dead-red staining (live cells are gated as red-staining negative population). […] The peptide drug targets actively replicating B-cells that is consistent with MBK50 targeting MYC.

Experiment [1] concerns monocyte-derived dendritic cells. In words: Monocyte-derived dendritic cell live/dead staining and culture images. Type of experiment: cell-based, human. As to the method: FIG. 14. Effect of MBK50 on CD14+ monocytes. FIG. 14(A) A scheme of the experimental procedure. Monocyte-derived dendritic cells were prepared from magnetic beads sorted CD14+ cells (from PBMC of a healthy donor) after culture for 4 days in the presence of GM-CSF+IL-4 (each 50 ng/ml). Cells were washed and cultured at 1×10^6/ml in a 96 well plate (200 μl/well in triplicates) without or with LPS (100 ng/ml), poly I:C (10 μg/ml), or sCD40L (1 μg/ml) in the presence of MBK50 (16 or 32 μM) or mutant peptide (32 μM) for 2 days. Live cells were determined using live/dead staining followed by flow cytometry analysis. FIG. 14(B) A representative flow profile with the gating strategy for live cells is shown. FIG. 14(C) Averages percentage of live cells for each culture condition are shown. *p<0.05, **p<0.01, ***p<0.001, ****p<0.0001
FIG. 15. Representative images of monocyte derived dendritic cells (MDCs) from two human healthy donors after treatment with MBK50, mutant peptide, or PBS for two days in U-bottom 96 well culture. The diameter of the ring approximately corresponds to the cell volume/numbers in each well.
Similar experiments were also performed with monocyte-derived dendritic cells as a model of human dendritic cells. […] Live cells were determined as shown above using live/dead staining.

A further experiment deals with CD14+ monocytes. In words: CD14+ monocyte live/dead staining. Type of experiment: cell-based. The following applies: 16 or 32 μM, 2 days; PBS, LPS, polyIC conditions; vs control peptide or PBS. The procedure: FIG. 13. Effect of MBK50 on CD14+ monocytes. FIG. 13(a) A scheme of the experimental procedure. CD14+ monocytes were prepared with magnetic beads from the PBMC of healthy donors. Cells were washed and cultured at 1×10^6/ml in a 96 well plate (200 μl/well in triplicates) without or with LPS (100 ng/ml) or poly I:C (10 μg/ml) in the presence of MBK (16 or 32 μM) or mutant peptide (32 μM) for 2 days. Live cells were determined using live/dead staining followed by flow cytometry analysis. FIG. 13(b) A representative flow profile with the gating strategy for live cells is shown. FIG. 13(c) Averages percentage of live cells for each culture condition are shown. **p<0.01, ***p<0.001, ****p<0.0001
Monocytic cells are important antigen-presenting cells bridging innate and antigen-specific immune responses. To evaluate the effect of MBK on monocytic cells, CD14+ monocytes were prepared with magnetic beads from the PBMC of healthy donors. Cells were washed and cultured at 1×10^6/ml in a 96 well plate (200 μl/well in triplicates) without or with LPS (100 ng/ml) or poly I:C (10 μg/ml) in the presence of MBK (16 or 32 μM) or mutant peptide (32 μM) for 2 days. Live cells were determined using live/dead staining, followed by flow cytometry analysis.

On to LSSILQGLYQLDT [MBK50], for which, in the experiment on human CD3 T cells, the “effect on activated proliferating CD3 T cells” value is listed as “preferentially targets actively dividing cells”. The “MYC expression (MFI)” value in the experiment with MYC is “significantly reduced”. In the experiment on CD19+ B cells, the live cell % entry is recorded as “reduced” and the total cell numbers result was “increased”. In addition, the “percentage of live cells” value in experiment [1] (16 or 32 μM, 2 days, PBS, LPS, sCD40L conditions, vs control peptide or PBS) is given as “significantly reduced”. The “appearance of MDCs in culture” value in experiment [1] (two days, U-bottom 96 well culture) was “not clumped and were more spread and adhesive”. The “percentage of live cells” value in the experiment with CD14+ monocytes is reported as “significantly reduced”.
